# Legend:
# Test in all cases: relative viability (nuclei count vs DMSO), 5 days (fraction); higher = more cells survive
# LOU-NH91 = tested on: LOU-NH91
# Method in brief: (§1)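 Lung cancer cell lines were pin-tool dosed in 1536-well plates on the day after seeding, with either a lone drug or a fixed anchor-drug dose plus five library-drug doses (not always all listed) in √10 steps. Nuclei were counted on 4× images after 5 days. Relative viability is the ratio of treated-well to vehicle-well nuclei counts, with each value a median of duplicate plates.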
# NCI-H1975 = tested on: NCI-H1975
# Method in brief: as §1
# LCLC-103H = tested on: LCLC-103H
# Method in brief: as §1
# NCI-H1666 = tested on: NCI-H1666
# Method in brief: as §1
# HCC-827 = tested on: HCC-827
# Method in brief: as §1
# NCI-H23 = tested on: NCI-H23
# Method in brief: as §1
# NCI-H1563 = tested on: NCI-H1563
# Method in brief: as §1
# NCI-H3122 = tested on: NCI-H3122
# Method in brief: as §1
# LXF-289 = tested on: LXF-289
# Method in brief: as §1
# NCI-H2405 = tested on: NCI-H2405
# Method in brief: as §1
# EPLC-272H = tested on: EPLC-272H
# Method in brief: as §1
# NCI-H2085 = tested on: NCI-H2085
# Method in brief: as §1
# HCC-44 = tested on: HCC-44
# Method in brief: as §1
# LK-2 = tested on: LK-2
# Method in brief: as §1
# SW 1573 = tested on: SW 1573
# Method in brief: as §1
# EMC-BAC-2 = tested on: EMC-BAC-2
# Method in brief: as §1
# HCC-366 = tested on: HCC-366
# Method in brief: as §1
# HCC-78 = tested on: HCC-78
# Method in brief: as §1
# SK-LU-1 = tested on: SK-LU-1
# Method in brief: as §1
# LU99A = tested on: LU99A
# Method in brief: as §1
# RERF-LC-KJ = tested on: RERF-LC-KJ
# Method in brief: as §1
# NCI-H2126 = tested on: NCI-H2126
# Method in brief: as §1
structure (smiles),measurement,setting,value
C[C@@H]1CN(CC(=O)Nc2ccc3c(c2)Cc2cccc(-c4cc(=O)cc(N5CCOCC5)o4)c2S3)C[C@H](C)O1 + C[C@]1(O)C[C@@H](c2nc(-c3ccc4ccc(-c5ccccc5)nc4c3)c3c(N)nccn32)C1 [Linsitinib] (partner 1 µM),relative viability,LOU-NH91; first compound 0.04 µM,1.02
same,relative viability,LOU-NH91; first compound 0.1265 µM,0.956
same,relative viability,LOU-NH91; first compound 0.4 µM,0.906
same,relative viability,LOU-NH91; first compound 4 µM,0.93
same,relative viability,NCI-H1975; first compound 0.04 µM,0.895
same,relative viability,NCI-H1975; first compound 0.1265 µM,0.866
same,relative viability,NCI-H1975; first compound 0.4 µM,0.81
same,relative viability,NCI-H1975; first compound 4 µM,0.8
same,relative viability,LCLC-103H; first compound 0.04 µM,1.09
same,relative viability,LCLC-103H; first compound 0.1265 µM,0.896
same,relative viability,LCLC-103H; first compound 0.4 µM,1.18
same,relative viability,LCLC-103H; first compound 4 µM,1.14
same,relative viability,NCI-H1666; first compound 0.04 µM,1.08
same,relative viability,NCI-H1666; first compound 0.1265 µM,0.908
same,relative viability,NCI-H1666; first compound 0.4 µM,0.839
same,relative viability,NCI-H1666; first compound 4 µM,0.565
same,relative viability,HCC-827; first compound 0.04 µM,1
same,relative viability,HCC-827; first compound 0.1265 µM,0.895
same,relative viability,HCC-827; first compound 0.4 µM,0.978
same,relative viability,HCC-827; first compound 4 µM,0.954
same,relative viability,NCI-H23; first compound 0.04 µM,0.609
same,relative viability,NCI-H23; first compound 0.1265 µM,0.496
same,relative viability,NCI-H23; first compound 0.4 µM,0.489
same,relative viability,NCI-H23; first compound 4 µM,0.494
same,relative viability,NCI-H1563; first compound 0.04 µM,1.17
same,relative viability,NCI-H1563; first compound 0.1265 µM,1.28
same,relative viability,NCI-H1563; first compound 0.4 µM,0.988
same,relative viability,NCI-H1563; first compound 4 µM,1.1
same,relative viability,NCI-H3122; first compound 0.04 µM,1.07
same,relative viability,NCI-H3122; first compound 0.1265 µM,0.933
same,relative viability,NCI-H3122; first compound 0.4 µM,1.02
same,relative viability,NCI-H3122; first compound 4 µM,0.99
same,relative viability,LXF-289; first compound 0.04 µM,0.981
same,relative viability,LXF-289; first compound 0.1265 µM,0.983
same,relative viability,LXF-289; first compound 0.4 µM,1.02
same,relative viability,LXF-289; first compound 4 µM,0.933
same,relative viability,NCI-H2405; first compound 0.04 µM,0.896
same,relative viability,NCI-H2405; first compound 0.1265 µM,1.04
same,relative viability,NCI-H2405; first compound 0.4 µM,0.832
same,relative viability,NCI-H2405; first compound 4 µM,0.881
same,relative viability,EPLC-272H; first compound 0.04 µM,1.24
same,relative viability,EPLC-272H; first compound 0.1265 µM,1.12
same,relative viability,EPLC-272H; first compound 0.4 µM,1.17
same,relative viability,EPLC-272H; first compound 4 µM,1.36
same,relative viability,NCI-H2085; first compound 0.04 µM,0.992
same,relative viability,NCI-H2085; first compound 0.1265 µM,0.803
same,relative viability,NCI-H2085; first compound 0.4 µM,0.827
same,relative viability,NCI-H2085; first compound 4 µM,0.724
same,relative viability,HCC-44; first compound 0.04 µM,0.636
same,relative viability,HCC-44; first compound 0.1265 µM,0.683
same,relative viability,HCC-44; first compound 0.4 µM,0.537
same,relative viability,HCC-44; first compound 4 µM,0.632
same,relative viability,LK-2; first compound 0.04 µM,0.255
same,relative viability,LK-2; first compound 0.1265 µM,0.394
same,relative viability,LK-2; first compound 0.4 µM,0.666
same,relative viability,LK-2; first compound 4 µM,0.824
same,relative viability,SW 1573; first compound 0.04 µM,0.814
same,relative viability,SW 1573; first compound 0.1265 µM,0.914
same,relative viability,SW 1573; first compound 0.4 µM,0.646
same,relative viability,SW 1573; first compound 4 µM,0.771
same,relative viability,EMC-BAC-2; first compound 0.04 µM,0.805
same,relative viability,EMC-BAC-2; first compound 0.1265 µM,0.765
same,relative viability,EMC-BAC-2; first compound 0.4 µM,0.757
same,relative viability,EMC-BAC-2; first compound 4 µM,0.77
same,relative viability,HCC-366; first compound 0.04 µM,0.752
same,relative viability,HCC-366; first compound 0.1265 µM,0.622
same,relative viability,HCC-366; first compound 0.4 µM,0.428
same,relative viability,HCC-366; first compound 4 µM,0.495
same,relative viability,HCC-78; first compound 0.04 µM,0.485
same,relative viability,HCC-78; first compound 0.1265 µM,0.461
same,relative viability,HCC-78; first compound 0.4 µM,0.344
same,relative viability,HCC-78; first compound 4 µM,0.461
same,relative viability,SK-LU-1; first compound 0.04 µM,1.18
same,relative viability,SK-LU-1; first compound 0.1265 µM,1.19
same,relative viability,SK-LU-1; first compound 0.4 µM,1.27
same,relative viability,SK-LU-1; first compound 4 µM,0.835
same,relative viability,LU99A; first compound 0.04 µM,0.489
same,relative viability,LU99A; first compound 0.1265 µM,0.46
same,relative viability,LU99A; first compound 0.4 µM,0.572
same,relative viability,LU99A; first compound 4 µM,0.596
same,relative viability,RERF-LC-KJ; first compound 0.04 µM,0.922
same,relative viability,RERF-LC-KJ; first compound 0.1265 µM,0.907
same,relative viability,RERF-LC-KJ; first compound 0.4 µM,0.91
same,relative viability,RERF-LC-KJ; first compound 4 µM,0.774
same,relative viability,NCI-H2126; first compound 0.04 µM,0.765
same,relative viability,NCI-H2126; first compound 0.1265 µM,0.762
same,relative viability,NCI-H2126; first compound 0.4 µM,0.707
same,relative viability,NCI-H2126; first compound 4 µM,0.722
